Measured values published in patent US10464941B2, “Therapeutic compounds” (REGENTS OF THE UNIVERSITY OF MINNESOTA, priority 2015, dated 2019).
Marks after values point to notes of the source that are not given here.

Legend:
[1] = system: control mice; experiment: Radiant heat tail-flick antinociception, control (LPS-untreated) mice; assay type: in vivo
Source text: Pain is a hallmark of many inflammatory conditions.

[2] = system: CFA-induced mechanical hyperalgesia mouse model; experiment: Complete Freund's Adjuvant (CFA) mechanical hyperalgesia, electronic von Frey; assay type: in vivo, mice; details: i.t.
Procedure: Before injection of CFA baseline withdrawal thresholds (g) were obtained from a mechanical stimulation using an electronic von Frey anesthesiometer (IITC Life Sciences, Woodland Hills, USA) by applying an accurate force on both left and right hind paw. (2,3) The left hindpaws were then injected (intraplantar) with a 50% solution of CFA (10 μg, Sigma-Aldrich) in water while the mice are under isoflurane anesthesia (10). Twenty-four hours later the withdrawal threshold (g) was again measured prior to and after the test compound i.t. at 10, 20, 30 and 60 minutes to determine the peak time and subsequent ED50. % MPE was calculated ((Time-point withdrawal threshold with drug−CFA withdrawal threshold)/(Day 0 withdrawal threshold−CFA withdrawal threshold))*100 (Wade, C. L., et al., PLoS One 2013, 8, e79239/1-e79239/11, 11 pp; Martinov, T., et al., J Vis Exp 2013, e51212; Sorge, R. E., et al., J. Neurosci. 2011, 31, 15450-15454).

[3] = system: IL-6; experiment: Proinflammatory cytokine IL-6 ELISA in LPS-stimulated microglia (BV2); assay type: cell-based, murine
Procedure: Murine primary microglia cell line (BV2) were cultured in DMEM with 10% heat-inactivated fetal bovine serum (FBS), 100 U/ml penicillin, 100 μg/ml streptomycin, 10 μg/ml gentamycin (all from Invitrogen, CA, USA). Cells were harvested on reaching 80% to 90% confluence by treating with 0.25% trypsin containing 1 mM EDTA for 5 minutes at 37° C. Cells (20,000/200 μl) were seeded on flat bottom 96 well plates and treated for 3 hrs with equimolar concentration (200 nM) of MCC22/Minocycline for 3 hrs followed by overnight treatment with LPS (1 μg/ml). At the end of the experiment, IL-6 was estimated by Sandwich ELISA using mouse IL-6 DuoSet kit (R&D Systems, Minneapolis, Minn.) in the culture supernatant.

Cc1ccc(N(CCCN2CCC(Cc3ccc(C(N)=O)cc3)CC2)C(=O)C2CCN(C(=O)COCC(=O)NCCCCCCCCCCNC(=O)COCC(=O)N[C@H]3CC[C@@]4(O)C5Cc6ccc(O)c7c6[C@@]4(CCN5C)[C@H]3O7)CC2)cc1Cl [Compound 3e, N-(3-(4-(4-carbamoylbenzyl)piperidin-1-yl)propyl)-N-(3-chloro-4-methylphenyl)-1-(22-(((4aS,7S,7aR,12bS)-4a,9-dihydroxy-3-methyl-2,3,4,4a,5,6,7,7a-octahydro-1H-4,12-methanobenzofuro[3,2-e]isoquinolin-7-yl)amino)-5,18,22-trioxo-3,20-dioxa-6,17-diazadocosan-1-oyl)piperidine-4-carboxamide]
CONTROLS i.c.v./i.t. ratio ([1]; control mice): 10.93^e | percent maximal possible effect at highest dose measured ([1]; control mice, i.c.v., 500 pmol/mouse): 49.7 ± 14.9% | acute tolerance (ED80 retested 24 hours later) ([1]; control mice, i.t.): (23.1-90.8)^b | CONTROLS ED50 (CI) i.t. ([1]; control mice, i.t., tail flick): 45.8 pmol/mouse | CONTROLS i.c.v./i.t. ratio ([1]; control mice, listed as MCC22): 11 | potency increase over 3c ([1]; i.t., LPS-untreated control mice): ~4 fold | FIG. 4 naïve/MCC22 (value with interval) ([1]; naïve mice): 45.75 (23.05-90.81) | ED50 values (95% CI) CFA (mechanical) [2]: 0.019 pmol/mouse | attenuation of IL-6 secretion ([3]; 200 nM, 3 hrs pretreatment, LPS 1 μg/ml overnight, microglial supernatant): ~30% | IL-6 secretion when combined with minocycline ([3]; MCC22 combined with minocycline, LPS): further attenuated
